Reference: PubChem BioAssay AID1259407 (Chemical Carcinogenesis Research Information System (CCRIS), 2018)
The source made the active and inactive calls. The rule behind the calls is not given here.

Tested on: CCRIS mutagenicity, Ames/micronucleus/aberration tests
Test: CCRIS mutagenicity studies
[1] = Test System: AMES SALMONELLA TYPHIMURIUM, Strain/Indicator: TA98, Metabolic Activation: NONE, Method: STANDARD PLATE
[2] = Test System: AMES SALMONELLA TYPHIMURIUM, Strain/Indicator: TA98, Metabolic Activation: RAT, LIVER, S-9, AROCLOR 1254, Method: STANDARD PLATE
[3] = Test System: AMES SALMONELLA TYPHIMURIUM, Strain/Indicator: TA100, Metabolic Activation: NONE, Method: STANDARD PLATE
[4] = Test System: AMES SALMONELLA TYPHIMURIUM, Strain/Indicator: TA100, Metabolic Activation: RAT, LIVER, S-9, AROCLOR 1254, Method: STANDARD PLATE

## c1ccc2cc3ccccc3cc2c1
End Point: In vitro chromosomal aberrations, Test System: Chinese hamster lung (CHL/IU) cells, Metabolic Activation: Rat, Liver, S9, Phenobarbital and 5,6-benzoflavone
  mutagenic call: active; positive (structural changes and ploidy). weak response for ploidy.
Test System: AMES SALMONELLA TYPHIMURIUM, Strain/Indicator: TA97, Metabolic Activation: NONE, Method: STANDARD PLATE
  mutagenic call: inactive; negative
Test System: AMES SALMONELLA TYPHIMURIUM, Strain/Indicator: TA97, Metabolic Activation: RAT, LIVER, S-9, PCB, Method: STANDARD PLATE
  mutagenic call: active; positive
Test System: AMES SALMONELLA TYPHIMURIUM, Strain/Indicator: TA98, Metabolic Activation: NONE, Method: PREINCUBATION
  mutagenic call: inactive; negative
[1]
  mutagenic call: inactive; negative
Test System: AMES SALMONELLA TYPHIMURIUM, Strain/Indicator: TA98, Metabolic Activation: RAT LIVER S-9, PHENOBARBITAL AND BETA-NAPHTHOFLAVONE, Method: PREINCUBATION
  mutagenic call: inactive; negative
[2]
  mutagenic call: inactive; negative
Test System: AMES SALMONELLA TYPHIMURIUM, Strain/Indicator: TA98, Metabolic Activation: RAT, LIVER, S-9, PCB, Method: STANDARD PLATE
  mutagenic call: inactive; negative
[3]
  mutagenic call: inactive; negative
Test System: AMES SALMONELLA TYPHIMURIUM, Strain/Indicator: TA100, Metabolic Activation: RAT LIVER S-9, PHENOBARBITAL AND BETA-NAPHTHOFLAVONE, Method: PREINCUBATION
  mutagenic call: inactive; negative
[4]
  mutagenic call: inactive; negative
Test System: AMES SALMONELLA TYPHIMURIUM, Strain/Indicator: TA100, Metabolic Activation: RAT, LIVER, S-9, PCB, Method: STANDARD PLATE
  mutagenic call: inactive; negative
Test System: AMES SALMONELLA TYPHIMURIUM, Strain/Indicator: TA1535, Metabolic Activation: NONE, Method: PREINCUBATION
  mutagenic call: inactive; negative
Test System: AMES SALMONELLA TYPHIMURIUM, Strain/Indicator: TA1535, Metabolic Activation: RAT LIVER S-9, PHENOBARBITAL AND BETA-NAPHTHOFLAVONE, Method: PREINCUBATION
  mutagenic call: inactive; negative
Test System: AMES SALMONELLA TYPHIMURIUM, Strain/Indicator: TA1537, Metabolic Activation: NONE, Method: PREINCUBATION
  mutagenic call: inactive; negative
Test System: AMES SALMONELLA TYPHIMURIUM, Strain/Indicator: TA1537, Metabolic Activation: RAT LIVER S-9, PHENOBARBITAL AND BETA-NAPHTHOFLAVONE, Method: PREINCUBATION
  mutagenic call: inactive; negative
Test System: AMES SALMONELLA TYPHIMURIUM, Strain/Indicator: TA1538, Metabolic Activation: NONE, Method: PREINCUBATION
  mutagenic call: inactive; negative
Test System: AMES SALMONELLA TYPHIMURIUM, Strain/Indicator: TA1538, Metabolic Activation: RAT LIVER S-9, PHENOBARBITAL AND BETA-NAPHTHOFLAVONE, Method: PREINCUBATION
  mutagenic call: inactive; negative
Test System: E. COLI, Strain/Indicator: WP2 UVRA, Metabolic Activation: HAMSTER, LIVER, S-9, AROCLOR 1254, Method: STANDARD PLATE
  mutagenic call: inactive; negative
Test System: E. COLI, Strain/Indicator: WP2 UVRA, Metabolic Activation: HAMSTER, LIVER, S-9, Method: STANDARD PLATE
  mutagenic call: inactive; negative
Test System: E. COLI, Strain/Indicator: WP2 UVRA, Metabolic Activation: MOUSE, LIVER, S-9, AROCLOR 1254, Method: STANDARD PLATE
  mutagenic call: inactive; negative
Test System: E. COLI, Strain/Indicator: WP2 UVRA, Metabolic Activation: MOUSE, LIVER, S-9, Method: STANDARD PLATE
  mutagenic call: inactive; negative
Test System: E. COLI, Strain/Indicator: WP2 UVRA, Metabolic Activation: NONE, Method: STANDARD PLATE
  mutagenic call: inactive; negative
Test System: E. COLI, Strain/Indicator: WP2 UVRA, Metabolic Activation: RAT, LIVER, S-9, AROCLOR 1254, Method: STANDARD PLATE
  mutagenic call: inactive; negative
Test System: E. COLI, Strain/Indicator: WP2 UVRA, Metabolic Activation: RAT, LIVER, S-9, Method: STANDARD PLATE
  mutagenic call: inactive; negative
Test System: E.COLI, Strain/Indicator: WP2UVRA, Metabolic Activation: NONE, Method: PREINCUBATION
  mutagenic call: inactive; negative
Test System: E.COLI, Strain/Indicator: WP2UVRA, Metabolic Activation: RAT LIVER S-9, PHENOBARBITAL AND BETA-NAPHTHOFLAVONE, Method: PREINCUBATION
  mutagenic call: inactive; negative
Test System: MOUSE LYMPHOMA, Strain/Indicator: L5178Y (TK+/TK-), Metabolic Activation: NONE, Method: SUSPENSION/PLATE
  mutagenic call: inactive; negative
Test System: MOUSE LYMPHOMA, Strain/Indicator: L5178Y (TK+/TK-), Metabolic Activation: RAT, LIVER, S-9, AROCLOR 1254, Method: SUSPENSION/PLATE
  mutagenic call: active; positive
Test System: MOUSE LYMPHOMA, Strain/Indicator: L5178Y (TK+/TK-), Metabolic Activation: RAT, LIVER, S-9, Method: SUSPENSION/PLATE
  mutagenic call: active; positive

## COCCCN
Test System: AMES SALMONELLA TYPHIMURIUM, Strain/Indicator: TA98, Metabolic Activation: HAMSTER, LIVER, S-9, AROCLOR 1254, Method: STANDARD PLATE
  mutagenic call: inactive; negative
[1]
  mutagenic call: inactive; negative
[2]
  mutagenic call: inactive; negative
Test System: AMES SALMONELLA TYPHIMURIUM, Strain/Indicator: TA100, Metabolic Activation: HAMSTER, LIVER, S-9, AROCLOR 1254, Method: STANDARD PLATE
  mutagenic call: inactive; negative
[3]
  mutagenic call: inactive; negative
[4]
  mutagenic call: inactive; negative
Test System: AMES SALMONELLA TYPHIMURIUM, Strain/Indicator: TA1535, Metabolic Activation: HAMSTER, LIVER, S-9, AROCLOR 1254, Method: STANDARD PLATE
  mutagenic call: inactive; negative
Test System: AMES SALMONELLA TYPHIMURIUM, Strain/Indicator: TA1535, Metabolic Activation: NONE, Method: STANDARD PLATE
  mutagenic call: inactive; negative
Test System: AMES SALMONELLA TYPHIMURIUM, Strain/Indicator: TA1535, Metabolic Activation: RAT, LIVER, S-9, AROCLOR 1254, Method: STANDARD PLATE
  mutagenic call: inactive; negative
Test System: AMES SALMONELLA TYPHIMURIUM, Strain/Indicator: TA1537, Metabolic Activation: HAMSTER, LIVER, S-9, AROCLOR 1254, Method: STANDARD PLATE
  mutagenic call: inactive; negative
Test System: AMES SALMONELLA TYPHIMURIUM, Strain/Indicator: TA1537, Metabolic Activation: NONE, Method: STANDARD PLATE
  mutagenic call: inactive; negative
Test System: AMES SALMONELLA TYPHIMURIUM, Strain/Indicator: TA1537, Metabolic Activation: RAT, LIVER, S-9, AROCLOR 1254, Method: STANDARD PLATE
  mutagenic call: inactive; negative
Test System: AMES SALMONELLA TYPHIMURIUM, Strain/Indicator: TA1538, Metabolic Activation: HAMSTER, LIVER, S-9, AROCLOR 1254, Method: STANDARD PLATE
  mutagenic call: inactive; negative
Test System: AMES SALMONELLA TYPHIMURIUM, Strain/Indicator: TA1538, Metabolic Activation: NONE, Method: STANDARD PLATE
  mutagenic call: inactive; negative
Test System: AMES SALMONELLA TYPHIMURIUM, Strain/Indicator: TA1538, Metabolic Activation: RAT, LIVER, S-9, AROCLOR 1254, Method: STANDARD PLATE
  mutagenic call: inactive; negative
Test System: Mouse lymphoma, Strain/Indicator: L5178Y (tk+/tk-), Metabolic Activation: None, Method: Suspension/plate
  mutagenic call: inactive; negative
Test System: Mouse lymphoma, Strain/Indicator: L5178Y (tk+/tk-), Metabolic Activation: Rat, Liver, S-9, Aroclor 1254, Method: Suspension/plate
  mutagenic call: inactive; negative
